Test results published in US8501238B2, “Anti-infective agents and uses thereof” (priority 2007, dated 2013).
Read-outs that look alike come from different tables or passages of the source.

How the values were obtained:
[1] = tested on: genotype 1a-H77 subgenomic replicon cell line; assay: microbe, parasite or virus in culture; assay type: cell-based, HCV; conditions: Hepatitis C virus, 72 h, read-out: EC50 1a
[2] = target: T1, HCV polymerase 1B (Δ21 NS5B) (Hepatitis C virus genotype 1b, UniProt P26663); assay: biochemical
T1 construct: 20 to 50nM Δ21 NS5B
Procedure: (§1) Either two-fold serial dilutions (fractional inhibition assay) or a narrower range of dilutions spanning the IC50 of the inhibitor (tight binding assay) of the inhibitors were incubated with 20mM Tris-Cl pH 7.4, 2 mM MnCl2, 1 mM dithiothreitol, 1 mM ethylene diamine tetraacetic acid (EDTA), 60 to 125μM GTP and 20 to 50nM Δ21 NS5B (HCV Strain 1B (BK, Genbank accession number M58335, or H77, Genbank accession number AF011751)) for 15min at room temperature. The reaction was initiated by the addition of 20μM CTP, 20μM ATP, 1μM ^3H-UTP (10mCi/umol), 5nM template RNA and 0.1 U/μl RNase inhibitor (RNasin, Promega), and allowed to proceed for 2 to 4h at room temperature. Reaction volume was 50μl. The reaction was terminated by the addition of 1 volume of 4mM spermine in 10mM Tris-Cl pH 8.0, 1mM EDTA. After incubation for at least 15 min at room temperature, the precipitated RNA was captured by filtering through a GF/B filter (Millipore) in a 96 well format. The filter plate was washed three times with 200μl each of 2mM spermine, 10mM Tris-Cl pH 8.0, lmM EDTA, and 2 times with ethanol. After air-drying, 30μl of Microscint 20 scintillation cocktail (Packard) was added to each well, and the retained cpm were determined by scintillation counting. […] Retained cpm were plotted vs. inhibitor concentration and fit to equation 1 using non-linear regression (ref. 1) to obtain the IC50 values: Retained cpm=A[sqrt{(IC50+It−Et)^2+4*IC50*Et}−([…])]
Ref. Morrison, J. F. and S. R. Stone. 1985. Approaches to the study and analysis of the inhibition of enzymes by slow- and tight-binding inhibitors. Comments Mol. Cell. Biophys. 2: 347-368.
(§2) The sequence of the template RNA used was: 5′-[…]-3′

[3] = tested on: genotype 1b-Con1 subgenomic replicon cell line; assay: microbe, parasite or virus in culture; assay type: cell-based, HCV; conditions: Hepatitis C virus, 72 h, read-out: EC50 1b
[4] = target: T2, HCV polymerase 1A (Δ21 NS5B) (Hepatitis C virus genotype 1a, UniProt P27958); assay: HCV Polymerase Inhibition Assay (1a); assay type: biochemical
T2 construct: 20 to 50nM Δ21 NS5B
Procedure: as §1, with “The” for “Either two-fold serial dilutions (fractional inhibition assay) or a narrower range of dilutions spanning the IC50 of the inhibitor (tight binding assay) of the inhibitors were incubated with 20mM Tris-Cl pH 7.4, 2 mM MnCl2, 1 mM dithiothreitol, 1 mM ethylene diamine tetraacetic acid (EDTA), 60 to 125μM GTP and 20 to 50nM Δ21 NS5B (HCV Strain 1B (BK, Genbank accession number M58335, or H77, Genbank accession number AF011751)) for 15min at room temperature. The”
Ref. Morrison, J. F. and S. R. Stone. […] Approaches to the study and analysis of the inhibition of enzymes by slow- and tight-binding inhibitors. Comments Mol. Cell. Biophys.
as §2

T2 sequence (P27958 2421-2990, stated change not applied): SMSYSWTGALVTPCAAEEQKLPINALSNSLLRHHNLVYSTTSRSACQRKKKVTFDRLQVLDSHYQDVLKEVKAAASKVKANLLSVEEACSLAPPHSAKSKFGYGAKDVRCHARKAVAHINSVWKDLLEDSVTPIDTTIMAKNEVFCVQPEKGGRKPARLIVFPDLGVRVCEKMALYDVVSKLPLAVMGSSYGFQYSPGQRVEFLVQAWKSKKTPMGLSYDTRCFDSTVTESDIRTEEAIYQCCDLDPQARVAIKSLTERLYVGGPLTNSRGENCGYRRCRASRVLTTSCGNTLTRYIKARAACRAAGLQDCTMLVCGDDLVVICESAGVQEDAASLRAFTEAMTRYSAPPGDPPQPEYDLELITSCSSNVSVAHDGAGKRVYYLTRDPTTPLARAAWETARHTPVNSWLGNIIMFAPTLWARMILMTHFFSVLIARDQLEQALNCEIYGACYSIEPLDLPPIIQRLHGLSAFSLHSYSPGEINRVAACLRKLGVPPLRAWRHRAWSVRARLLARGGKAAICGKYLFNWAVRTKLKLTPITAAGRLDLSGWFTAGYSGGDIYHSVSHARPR
T1 sequence (P26663 2420-2989, stated change not applied): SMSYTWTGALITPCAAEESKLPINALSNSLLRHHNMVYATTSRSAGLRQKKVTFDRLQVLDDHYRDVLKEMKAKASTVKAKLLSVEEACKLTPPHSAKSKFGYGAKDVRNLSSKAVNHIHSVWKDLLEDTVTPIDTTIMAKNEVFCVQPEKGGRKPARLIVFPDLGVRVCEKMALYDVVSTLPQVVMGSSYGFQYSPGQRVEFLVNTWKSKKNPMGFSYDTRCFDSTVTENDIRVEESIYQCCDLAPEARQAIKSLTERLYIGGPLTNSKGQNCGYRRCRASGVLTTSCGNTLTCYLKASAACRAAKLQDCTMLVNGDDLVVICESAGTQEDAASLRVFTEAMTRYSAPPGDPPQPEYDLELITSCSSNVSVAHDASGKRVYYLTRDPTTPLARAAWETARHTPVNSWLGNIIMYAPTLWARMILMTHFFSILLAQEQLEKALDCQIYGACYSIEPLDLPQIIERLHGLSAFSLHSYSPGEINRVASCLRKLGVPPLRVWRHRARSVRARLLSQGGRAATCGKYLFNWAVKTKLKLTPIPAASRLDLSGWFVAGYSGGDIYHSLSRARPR

COc1c(-c2nc3cc(NS(C)(=O)=O)ccc3[nH]2)cc(N2CCC(=O)NC2=O)cc1C(C)(C)C [IA-L0-2.1, N-(2-(3-tert-butyl-5-(2,4-dioxotetrahydropyrimidin-1(2H)-yl)-2-methoxyphenyl)-1H-benzo[d]imidazol-5-yl)methanesulfonamide]
EC50 [1]: > 1000 nM
IC50 [2]: 100 to 1000 nM
EC50 [3]: > 1000 nM
IC50 [4]: 100 to 1000 nM

COc1c(-c2nc3ccc(NS(C)(=O)=O)cc3s2)cc(N2CCC(=O)NC2=O)cc1C(C)(C)C [IA-L0-2.2, N-(2-(3-tert-butyl-5-(2,4-dioxotetrahydropyrimidin-1(2H)-yl)-2-methoxyphenyl)benzo[d]thiazol-6-yl)methanesulfonamide]
EC50 [1]: 100 to 1000 nM
IC50 [2]: 10 to 100 nM
EC50 [3]: 10 to 100 nM
IC50 [4]: 10 to 100 nM

COc1c(-c2nc3ccccc3s2)cc(N2CCC(=O)NC2=O)cc1C(C)(C)C [IA-L0-2.3, 1-(3-(benzo[d]thiazol-2-yl)-5-tert-butyl-4-methoxyphenyl)dihydro pyrimidine-2,4(1H,3H)-dione]
EC50 [1]: 100 to 1000 nM
IC50 [2]: 100 to 1000 nM
EC50 [3]: 100 to 1000 nM
IC50 [4]: 100 to 1000 nM

COc1c(-c2nc3cc(NS(C)(=O)=O)ccc3s2)cc(N2CCC(=O)NC2=O)cc1C(C)(C)C [IA-L0-2.4, N-(2-(3-tert-butyl-5-(2,4-dioxotetrahydropyrimidin-1(2H)-yl)-2-methoxyphenyl)benzo[d]thiazol-5-yl)methanesulfonamide]
EC50 [1]: > 1000 nM
IC50 [2]: 10 to 100 nM
EC50 [3]: 100 to 1000 nM
IC50 [4]: 10 to 100 nM

COc1c(-c2nc3ccc(NS(C)(=O)=O)cc3o2)cc(N2CCC(=O)NC2=O)cc1C(C)(C)C [IA-L0-2.5, N-(2-(3-tert-butyl-5-(2,4-dioxotetrahydropyrimidin-1(2H)-yl)-2-methoxyphenyl)benzo[d]oxazol-6-yl)methanesulfonamide]
EC50 [1]: > 1000 nM
IC50 [2]: 100 to 1000 nM
EC50 [3]: > 1000 nM
IC50 [4]: 100 to 1000 nM

COc1c(-c2nc3ccc([N+](=O)[O-])cc3o2)cc(N2CCC(=O)NC2=O)cc1C(C)(C)C [IA-L0-2.6, 1-(3-tert-butyl-4-methoxy-5-(6-nitrobenzo[d]oxazol-2-yl)phenyl) dihydropyrimidine-2,4(1H,3H)-dione]
EC50 [1]: > 1000 nM
IC50 [2]: 100 to 1000 nM
EC50 [3]: > 1000 nM
IC50 [4]: 100 to 1000 nM

COc1c(-c2nc3cc([N+](=O)[O-])ccc3o2)cc(N2CCC(=O)NC2=O)cc1C(C)(C)C [IA-L0-2.7, 1-(3-tert-butyl-4-methoxy-5-(5-nitrobenzo[d]oxazol-2-yl)phenyl) dihydropyrimidine-2,4(1H,3H)-dione]
EC50 [1]: > 1000 nM
IC50 [2]: 100 to 1000 nM
EC50 [3]: 100 to 1000 nM
IC50 [4]: 100 to 1000 nM

COc1c(-c2nc3cc(NS(C)(=O)=O)ccc3o2)cc(N2CCC(=O)NC2=O)cc1C(C)(C)C [IA-L0-2.8, N-(2-(3-tert-butyl-5-(2,4-dioxotetrahydropyrimidin-1(2H)-yl)-2-methoxyphenyl)benzo[d]oxazol-5-yl)methanesulfonamide]
EC50 [1]: 100 to 1000 nM
IC50 [2]: 10 to 100 nM
EC50 [3]: 10 to 100 nM
IC50 [4]: 10 to 100 nM

COc1c(-c2ccc3cc(NS(C)(=O)=O)ccc3c2)cc(N2CCC(=O)NC2=O)cc1C(C)(C)C [IA-L0-2.9, N-(6-(3-tert-butyl-5-(2,4-dioxotetrahydropyrimidin-1(2H)-yl)-2-methoxyphenyl)naphthalen-2-yl)methanesulfonamide]
EC50 [1]: < 10 nM
IC50 [2]: < 10 nM
EC50 [3]: < 10 nM
IC50 [4]: < 10 nM

COc1c(-c2ccc3ccccc3c2)cc(-n2ccc(=O)[nH]c2=O)cc1C(C)(C)C [IB-L0-2.1, 1-(3-tert-butyl-4-methoxy-5-(naphthalen-2-yl)phenyl)pyrimidine-2,4(1H,3H)-dione]
EC50 [1]: > 1000 nM
IC50 [2]: 100 to 1000 nM
EC50 [3]: 100 to 1000 nM
IC50 [4]: 100 to 1000 nM

COc1ccc2cc(-c3cc(-n4ccc(=O)[nH]c4=O)cc(C(C)(C)C)c3OC)ccc2c1 [IB-L0-2.2, 1-(3-tert-butyl-4-methoxy-5-(6-methoxynaphthalen-2-yl)phenyl)pyrimidine-2,4(1H,3H)-dione]
EC50 [1]: > 1000 nM
IC50 [2]: 100 to 1000 nM
EC50 [3]: > 1000 nM
IC50 [4]: 100 to 1000 nM

COc1c(-c2ccc3cc(NS(C)(=O)=O)ccc3c2)cc(-n2ccc(=O)[nH]c2=O)cc1C(C)(C)C [IB-L0-2.3, N-(6-(3-tert-butyl-5-(2,4-dioxo-3,4-dihydropyrimidin-1(2H)-yl)-2-methoxyphenyl)naphthalen-2-yl)methanesulfonamide]
EC50 [1]: < 10 nM
IC50 [2]: < 10 nM
EC50 [3]: < 10 nM
IC50 [4]: < 10 nM

COc1c(-c2ccc3c(c2)CC/C3=N\NS(C)(=O)=O)cc(-n2ccc(=O)[nH]c2=O)cc1C(C)(C)C [IB-L0-2.4, (E)-N′-(5-(3-tert-butyl-5-(2,4-dioxo-3,4-dihydropyrimidin-1(2H)-yl)-2-methoxyphenyl)-2,3-dihydro-1H-inden-1-ylidene)methanesulfonohydrazide]
IC50 [2]: < 10 nM
EC50 [3]: < 10 nM
IC50 [4]: < 10 nM

COc1c(-c2ccc3nc(NS(C)(=O)=O)ccc3c2)cc(-n2ccc(=O)[nH]c2=O)cc1C(C)(C)C [IB-L0-2.5, N-(6-(3-tert-butyl-5-(2,4-dioxo-3,4-dihydropyrimidin-1(2H)-yl)-2-methoxyphenyl)quinolin-2-yl)methanesulfonamide]
EC50 [1]: 10 to 100 nM
IC50 [2]: 10 to 100 nM
EC50 [3]: < 10 nM
IC50 [4]: 10 to 100 nM

COc1c(-c2nc3cc(NS(C)(=O)=O)ccc3o2)cc(-n2ccc(=O)[nH]c2=O)cc1C(C)(C)C [IB-L0-2.6, N-(2-(3-tert-butyl-5-(2,4-dioxo-3,4-dihydropyrimidin-1(2H)-yl)-2-methoxyphenyl)benzo[d]oxazol-5-yl)methanesulfonamide]
EC50 [1]: 100 to 1000 nM
IC50 [2]: 10 to 100 nM
EC50 [3]: 10 to 100 nM
IC50 [4]: 10 to 100 nM

CC(C)(C)c1cc(-c2ccc3cc(NS(C)(=O)=O)ccc3c2)cc(-n2ccc(=O)[nH]c2=O)c1 [IB-L0-2.8, N-(6-(3-tert-butyl-5-(2,4-dioxo-3,4-dihydropyrimidin-1(2H)-yl)phenyl)naphthalen-2-yl)methanesulfonamide]
IC50 [2]: 10 to 100 nM
EC50 [3]: 10 to 100 nM
IC50 [4]: 10 to 100 nM

COc1c(-c2ccc3c(c2)CC[C@]3(F)CNS(C)(=O)=O)cc(-n2ccc(=O)[nH]c2=O)cc1C(C)(C)C [IB-L0-2.10, (R)-N-((5-(3-tert-butyl-5-(2,4-dioxo-3,4-dihydropyrimidin-1 (2H)-yl)-2-methoxyphenyl)-1-fluoro-2,3-dihydro-1H-inden-1-yl)methyl)methanesulfonamide]
EC50 [1]: < 10 nM
IC50 [2]: 10 to 100 nM
EC50 [3]: < 10 nM
IC50 [4]: < 10 nM

COc1c(N2CCc3cc(NS(C)(=O)=O)ccc3C2)cc(-n2ccc(=O)[nH]c2=O)cc1C(C)(C)C [IB-L0-2.19, N-(2-(3-tert-butyl-5-(2,4-dioxo-3,4-dihydropyrimidin-1(2H)-yl)-2-methoxyphenyl)-1,2,3,4-tetrahydroisoquinolin-6-yl)methanesulfonamide]
EC50 [1]: 10 to 100 nM
IC50 [2]: 10 to 100 nM
EC50 [3]: 10 to 100 nM
IC50 [4]: < 10 nM

COc1c(-c2ccc3nc(NC(C)=O)sc3c2)cc(-n2ccc(=O)[nH]c2=O)cc1C(C)(C)C [IB-L0-2.49, N-(6-(3-tert-butyl-5-(2,4-dioxo-3,4-dihydropyrimidin-1(2H)-yl)-2-methoxyphenyl)benzo[d]thiazol-2-yl)acetamide]
IC50 [2]: > 1000 nM
IC50 [4]: > 1000 nM

N,N′-(6,6′-(5-(2,4-dioxo-3,4-dihydropyrimidin-1(2H)-yl)-2-methoxy-1,3-phenylene) bis(naphthalene-6,2-diyl))dimethanesulfonamide [IB-L0-2.76]
IC50 ([2]; HCV polymerase 1b, read-out: IC50 1b): > 1000 nM
IC50 ([4]; HCV polymerase 1a, read-out: IC50 1a): 100 to 1000 nM
